Biological target: Complement factor D (Homo sapiens, UniProt P00746)
Assay: Factor D Assay: Human Factor D (purified from human serum, Complement Technology, Inc.) at 80 nM final concentration is incubated with test compound at various concentrations for 5 min at room temperature in 50 mM Tris, 1M NaCl, pH 7.5. A synthetic substrate Z-L-Lys-SBz and DTNB (Ellman's reagent) are added to final concentrations of 100 μM each. Absorbance at 405 nm (A405) is recorded at 30 second intervals for 30 min using a microplate spectrophotometer. IC50 values are calculated by nonlinear regression of complement Factor D reaction rates as a function of test compound concentration.

Complement factor D, sequence (P00746 whole entry): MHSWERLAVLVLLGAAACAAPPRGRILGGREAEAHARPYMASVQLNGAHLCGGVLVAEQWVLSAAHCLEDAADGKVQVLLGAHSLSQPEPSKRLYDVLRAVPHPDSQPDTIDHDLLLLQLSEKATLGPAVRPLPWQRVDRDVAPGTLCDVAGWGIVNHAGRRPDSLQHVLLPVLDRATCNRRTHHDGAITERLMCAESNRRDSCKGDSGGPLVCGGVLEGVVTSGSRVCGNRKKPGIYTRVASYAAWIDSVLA

SMILES | IC50
CC(=O)c1nn(CC(=O)N2[C@H](C(=O)Nc3nc(Br)ccc3C)C[C@@]3(CCCF)C[C@@H]23)c2cnc(-c3cnc(C)nc3)cc12 | < 1000 nM
CC(=O)c1nn(CC(=O)N2[C@H](C(=O)Nc3cc(C(=O)O)cc(Br)n3)C[C@@]3(C)C[C@@H]23)c2c(CN)cc(-c3cnc(C)nc3)cc12 | < 1000 nM
CC(=O)c1nn(CC(=O)N2[C@H](C(=O)N[C@H](C)c3ccccc3)C[C@@]3(C)C[C@@H]23)c2c(C)cc(-c3cnc(C)nc3)cc12 | < 1000 nM
C=C[C@@]12C[C@@H](C(=O)Nc3nc(Br)ccc3Cc3nnc(CCCC)o3)N(C(=O)Cn3nc(C(C)=O)c4cc(-c5cnc(C)nc5)ncc43)[C@@H]1C2 | < 1000 nM
COC[C@@]12C[C@@H](C(=O)Nc3nc(Br)ccc3C)N(C(=O)Cn3nc(C(C)=O)c4cc(-c5cnc(C)nc5)ncc43)[C@@H]1C2 | < 1000 nM
C=CCCc1cc(-c2cnc(C)nc2)cc2c(C(C)=O)nn(CC(=O)N3[C@H](C(=O)Nc4nc(Br)ccc4C)C[C@@]4(COCC=C)C[C@@H]34)c12 | < 1000 nM
CC(=O)c1nn(CC(=O)N2[C@H](C(=O)NCc3cccnn3)C[C@@]3(C)C[C@@H]23)c2c(C)cc(-c3cnc(C)nc3)cc12 | < 1000 nM
CC(=O)c1nn(CC(=O)N2[C@H](C(=O)Nc3nc(Br)ccc3C)C[C@@]3(/C=N/O)C[C@@H]23)c2cnc(-c3cnc(C)nc3)cc12 | < 1000 nM
CC(=O)c1nn(CC(=O)N2[C@H](C(=O)Nc3nc(Br)ccc3C)C[C@@]3(CN4CCC4)C[C@@H]23)c2c(C)nc(-c3cnc(C)nc3)cc12 | < 1000 nM
CC(=O)c1nn(CC(=O)N2[C@H](C(=O)Nc3cccc(-c4ccccc4Cl)c3F)C[C@@]3(C)C[C@@H]23)c2ccc(-c3cnc(C)nc3)cc12 | < 1000 nM
CC(=O)c1nn(CC(=O)N2[C@H](C(=O)NCCCc3ccccc3)C[C@@]3(C)C[C@@H]23)c2c(C)cc(-c3cnc(C)nc3)cc12 | < 1000 nM
CC(=O)c1nn(CC(=O)N2[C@H](C(=O)N[C@H](C)[C@H]3CC3(Cl)Cl)C[C@@]3(C)C[C@@H]23)c2c(C)cc(-c3cnc(C)nc3)cc12 | < 1000 nM

From ChEMBL document CHEMBL5728630, “Aryl, heteroaryl, and heterocyclic pharmaceutical compounds for treatment of medical disorders” (2021)
